From US9370523B2, “Method for diagnosing or prediagnosing a beta-amyloidopathy or an alpha-synucleopathy” (Immungenetics AG, priority 2010, dated 2016) come the findings set out here.

The assay deals with ABCC1 transporter. Nature of the assay: Activation of the ABCC1 transporter.

For `CCSc1ccc2c(c1)N(CCCN1CCN(C)CC1)c1ccccc1S2` [thiethylperazine, 2-(ethylthio)-10-[3-(4-methylpiperazin-1-yl)propyl]-10H-phenothiazine], the “activation of the ABCC1 transporter, in words” value was “particularly efficient activator of the ABCC1 transporter”.
